Source: ChEMBL document CHEMBL1201862, “PubChem BioAssay data set” (2004)
Active and inactive are the calls of the source.

Assays:
Nonstructural protein 1 = Nonstructural protein 1 (Influenza A virus, UniProt Q194T2); assay type: functional, Influenza A virus (A/California/07/2009(H1N1))
[1] = intracellular Trypanosoma cruzi inhibitors in host cells – cell-based, plate reader, cherry-pick samples, set 3, dose response (AID 651818); assay type: functional;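 also: compounds incubated with infected cells for about four days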
[2] = biological target: Induced myeloid leukemia cell differentiation protein Mcl-1 (Homo sapiens, UniProt Q07820); assay type: functional
Sequence of Induced myeloid leukemia cell differentiation protein Mcl-1 (Q07820 whole entry, the tested form may be a part): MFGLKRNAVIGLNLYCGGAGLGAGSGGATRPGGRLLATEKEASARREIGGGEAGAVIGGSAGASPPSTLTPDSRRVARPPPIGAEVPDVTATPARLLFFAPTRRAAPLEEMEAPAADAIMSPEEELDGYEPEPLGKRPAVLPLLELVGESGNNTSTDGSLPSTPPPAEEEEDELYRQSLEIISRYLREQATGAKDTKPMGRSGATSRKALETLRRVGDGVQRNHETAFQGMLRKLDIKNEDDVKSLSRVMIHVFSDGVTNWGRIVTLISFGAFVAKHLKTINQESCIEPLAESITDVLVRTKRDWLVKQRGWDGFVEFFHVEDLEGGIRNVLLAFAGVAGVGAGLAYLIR

[3] = biological target: T1, RNA-binding protein pos-1 (Caenorhabditis elegans, UniProt G5EF15); assay: disruptors of C. elegans POS-1 RNA interaction – biochemical, fluorescence polarization, dose response (AID 1964);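 also: purified POS-1 fused to maltose binding protein made in E. coli; potency of compounds blocking POS-1 binding to fluorescent RNA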
T1 sequence (G5EF15 whole entry): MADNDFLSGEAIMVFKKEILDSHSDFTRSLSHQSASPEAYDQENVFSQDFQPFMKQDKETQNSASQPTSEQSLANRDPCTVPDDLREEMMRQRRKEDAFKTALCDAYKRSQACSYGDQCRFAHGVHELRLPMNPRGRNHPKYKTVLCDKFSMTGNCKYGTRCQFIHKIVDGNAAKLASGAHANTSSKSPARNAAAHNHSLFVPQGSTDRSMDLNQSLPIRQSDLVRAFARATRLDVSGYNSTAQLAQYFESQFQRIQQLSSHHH

[4] = biological target: T2, Zinc finger protein mex-5 (Caenorhabditis elegans, UniProt Q9XUB2); assay: potency of MEX-5 RNA-binding blockers – biochemical, C. elegans, fluorescence polarization, dose response (AID 1960)
T2 sequence (Q9XUB2 whole entry): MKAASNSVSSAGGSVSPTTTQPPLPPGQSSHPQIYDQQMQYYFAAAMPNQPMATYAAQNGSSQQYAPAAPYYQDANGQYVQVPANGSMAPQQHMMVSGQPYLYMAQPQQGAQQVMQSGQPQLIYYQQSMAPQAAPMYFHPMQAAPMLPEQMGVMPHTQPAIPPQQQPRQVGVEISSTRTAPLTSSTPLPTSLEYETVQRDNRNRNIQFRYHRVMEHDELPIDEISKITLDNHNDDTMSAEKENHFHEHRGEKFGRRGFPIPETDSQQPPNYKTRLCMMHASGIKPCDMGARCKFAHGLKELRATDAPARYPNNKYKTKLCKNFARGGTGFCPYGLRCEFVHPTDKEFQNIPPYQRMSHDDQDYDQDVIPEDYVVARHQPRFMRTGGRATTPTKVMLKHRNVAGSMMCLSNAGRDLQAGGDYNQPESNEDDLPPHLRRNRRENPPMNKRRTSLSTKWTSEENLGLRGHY

Vero = assay: cells; assay type: functional; settings: Chlorocebus sabaeus
Protein RecA = biological target: T3, Protein RecA (Mycobacterium tuberculosis, UniProt P9WHJ3); assay: Fluorescence Cell-Free Homogeneous Dose Retest to Identify Inhibitors of RecA-Intein Splicing Activity. [Related pubchem assays (depositor defined):AID2097, AID2223, AID489010, AID492950]; assay type: functional
T3 sequence (P9WHJ3 whole entry): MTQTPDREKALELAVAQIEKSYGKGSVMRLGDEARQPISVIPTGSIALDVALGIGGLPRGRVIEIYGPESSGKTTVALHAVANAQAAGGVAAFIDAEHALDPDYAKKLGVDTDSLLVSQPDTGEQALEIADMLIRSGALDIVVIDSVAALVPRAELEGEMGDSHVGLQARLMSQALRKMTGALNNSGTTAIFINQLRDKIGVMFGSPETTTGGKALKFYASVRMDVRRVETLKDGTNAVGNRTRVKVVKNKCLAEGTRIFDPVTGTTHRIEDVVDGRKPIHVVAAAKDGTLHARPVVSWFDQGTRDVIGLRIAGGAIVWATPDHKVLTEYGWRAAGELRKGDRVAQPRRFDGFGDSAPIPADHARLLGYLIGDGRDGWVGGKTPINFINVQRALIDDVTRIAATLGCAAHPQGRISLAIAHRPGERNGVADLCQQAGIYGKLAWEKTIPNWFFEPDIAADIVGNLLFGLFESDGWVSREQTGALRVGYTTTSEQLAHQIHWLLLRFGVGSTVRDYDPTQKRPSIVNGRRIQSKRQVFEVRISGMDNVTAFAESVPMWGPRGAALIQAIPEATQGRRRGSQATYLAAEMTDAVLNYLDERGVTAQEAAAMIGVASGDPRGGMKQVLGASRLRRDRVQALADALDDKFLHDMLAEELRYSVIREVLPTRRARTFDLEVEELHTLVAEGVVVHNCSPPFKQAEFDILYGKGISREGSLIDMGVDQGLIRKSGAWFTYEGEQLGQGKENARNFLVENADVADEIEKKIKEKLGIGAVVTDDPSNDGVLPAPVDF

[5] = biological target: T4, Replicative DNA helicase DnaB (Mycobacterium tuberculosis, UniProt P9WMR3); assay: DnaB intein splicing inhibitors, dose response, biochemical, cell-free fluorescence (AID 449749); assay type: functional
T4 sequence (P9WMR3 whole entry): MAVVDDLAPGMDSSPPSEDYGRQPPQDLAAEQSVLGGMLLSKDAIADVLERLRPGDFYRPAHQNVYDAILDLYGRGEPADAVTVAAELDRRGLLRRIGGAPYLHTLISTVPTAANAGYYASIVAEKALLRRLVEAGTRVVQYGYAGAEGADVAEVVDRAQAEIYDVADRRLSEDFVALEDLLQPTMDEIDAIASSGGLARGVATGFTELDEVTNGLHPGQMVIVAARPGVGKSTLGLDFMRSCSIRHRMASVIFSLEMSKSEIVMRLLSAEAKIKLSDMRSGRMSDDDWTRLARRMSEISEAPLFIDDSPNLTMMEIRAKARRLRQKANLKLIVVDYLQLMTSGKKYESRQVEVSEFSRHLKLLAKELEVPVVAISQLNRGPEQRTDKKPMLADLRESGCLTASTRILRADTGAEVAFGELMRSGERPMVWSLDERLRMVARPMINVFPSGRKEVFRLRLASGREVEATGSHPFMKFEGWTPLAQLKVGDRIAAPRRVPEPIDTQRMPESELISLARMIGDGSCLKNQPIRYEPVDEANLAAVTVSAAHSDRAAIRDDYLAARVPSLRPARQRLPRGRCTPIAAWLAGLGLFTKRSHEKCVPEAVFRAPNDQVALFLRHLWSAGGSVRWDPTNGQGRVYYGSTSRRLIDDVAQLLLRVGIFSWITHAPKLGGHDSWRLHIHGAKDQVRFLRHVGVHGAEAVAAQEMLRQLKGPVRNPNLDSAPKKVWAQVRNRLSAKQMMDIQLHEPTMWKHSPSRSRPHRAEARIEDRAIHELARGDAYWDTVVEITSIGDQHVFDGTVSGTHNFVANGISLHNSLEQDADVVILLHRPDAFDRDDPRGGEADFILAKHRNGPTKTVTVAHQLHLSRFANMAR

H4 = assay: Luminescence Cell-Based Dose Response HTS to Identify Activators of 5'UTR Stem-Loop Driven Prion Protein mRNA Translation in H4 Neuroglioblastoma Cells. [Related pubchem assays: 1829 (Project Summary), 1814 (Primary HTS)]; assay type: functional; settings: Homo sapiens
[6] = Luminescence Cell-Based Dose Response HTS to Identify Activators of Luciferase Translation or Activity in H4 […] Cells. [Related pubchem assays: 1829 (Project Summary), 1814 (Primary HTS)]; assay type: functional
[7] = NIH3T3 cell viability loss – ATP luminescence, mouse fibroblasts, counter-screen, dose response (AID 2010); assay type: functional, cell-based;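 also: cells exposed to compound for about 90 hours before reading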
INS1 = assay: INS-1E survival protection against cytokine death – cell-based, luminescence, retest, dose response (AID 449756); assay type: functional; settings: Rattus norvegicus;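 also: cell death triggered by IL-1 beta plus TNF-alpha plus IFN-gamma mixture; protective hits raise ATP signal compared with cytokine alone wells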
[8] = Trypanosoma cruzi growth suppression in host cells – NIH3T3 host cells, beta-gal luminescence, confirmation (AID 2044); assay type: functional, cell-based;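 also: intracellular parasites grown in NIH/3T3 mouse fibroblasts as host cells; luminescent beta-galactosidase reporter signal from transgenic T. cruzi replicating inside host cells; inhibitors lower the luminescence signal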
[9] = Luminescence Cell-Based Dose Retest to Confirm Inhibitors of Cancer Stem Cells. [Related pubchem assays (depositor defined):AID2717, AID2721]; assay type: functional; settings: Homo sapiens
[10] = biological target: T5, Rac GTPase-activating protein 1 (Homo sapiens, UniProt Q9H0H5); assay: blockers of MgcRacGAP-driven Rac1 GTP hydrolysis – biochemical, ADP Hunter fluorescence, primary and confirmatory, confirmation (AID 624330); assay type: functional
T5 sequence (Q9H0H5 whole entry): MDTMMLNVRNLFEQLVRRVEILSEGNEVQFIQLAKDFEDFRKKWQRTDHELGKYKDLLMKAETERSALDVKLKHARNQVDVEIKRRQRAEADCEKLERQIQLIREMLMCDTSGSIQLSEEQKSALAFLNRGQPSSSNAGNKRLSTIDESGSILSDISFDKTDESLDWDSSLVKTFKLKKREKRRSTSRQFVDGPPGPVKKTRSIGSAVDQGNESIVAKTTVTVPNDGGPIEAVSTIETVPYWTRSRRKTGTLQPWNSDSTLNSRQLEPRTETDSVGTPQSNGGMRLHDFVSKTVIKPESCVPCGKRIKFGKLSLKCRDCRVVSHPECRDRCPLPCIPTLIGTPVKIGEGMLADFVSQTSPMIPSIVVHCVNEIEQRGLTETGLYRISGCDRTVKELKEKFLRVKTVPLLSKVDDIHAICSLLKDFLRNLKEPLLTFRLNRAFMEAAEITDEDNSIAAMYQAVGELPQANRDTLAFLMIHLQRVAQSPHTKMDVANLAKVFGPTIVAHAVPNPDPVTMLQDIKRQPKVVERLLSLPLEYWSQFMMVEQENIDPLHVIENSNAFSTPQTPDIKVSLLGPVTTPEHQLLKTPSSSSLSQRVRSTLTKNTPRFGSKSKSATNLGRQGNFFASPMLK

Sequence of Nonstructural protein 1 (Q194T2 whole entry): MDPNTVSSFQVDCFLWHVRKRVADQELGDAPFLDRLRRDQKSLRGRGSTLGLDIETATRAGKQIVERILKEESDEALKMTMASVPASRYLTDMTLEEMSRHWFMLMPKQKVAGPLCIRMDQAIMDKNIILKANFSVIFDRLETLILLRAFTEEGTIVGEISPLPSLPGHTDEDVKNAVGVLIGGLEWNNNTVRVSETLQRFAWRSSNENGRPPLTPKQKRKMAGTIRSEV

O=C(COC(=O)C1CCCCC1)Nc1ccc(N2CCCCC2)cc1
IC50 (Nonstructural protein 1): 34.6 µM (active)

C[C@@H]1CCCCO[C@H](CN(C)Cc2ccc(Cl)c(Cl)c2)[C@@H](C)CN([C@H](C)CO)C(=O)c2cc(NC(=O)Nc3ccc4c(c3)OCO4)ccc2O1
AC50 [1]: 4.02 µM (active)

COc1ccc(C(=O)C[n+]2ccc(-c3nnc4n3CCCCC4)cc2)cc1
IC50 [2]: > 54 µM (active)

O=C(NN1C(=O)c2ccccc2NC1c1ccccn1)c1ccc(Br)cc1 (centres undefined)
EC50 [3]: 64.9 µM (active) | EC50 [4]: 15.5 µM (active)

C[C@@H]1CN([C@H](C)CO)C(=O)Cc2cc(NS(=O)(=O)c3ccc(Cl)cc3)ccc2O[C@H]1CN(C)Cc1ccc2c(c1)OCO2
AC50 [1]: 3.53 µM (active)

CCN1CCN(Cc2ccc(NC(=O)c3cc(NC(=O)N4CCNC4=O)cc(OC)c3)cc2C(F)(F)F)CC1
CC50 (Vero): > 25 µM (active)

Cc1ccc(-n2nc(C)c3c2OC(N)=C(C#N)C3c2ccc(C)o2)cc1 (centres undefined)
EC50 (Protein RecA): 25.7 µM (inconclusive) | AC50 [5]: 5.9 µM (active) | IC50 (Nonstructural protein 1): 24.9 µM (active)

C[C@H]1CN([C@@H](C)CO)C(=O)Cc2cc(NC(=O)Nc3ccc(C(F)(F)F)cc3)ccc2O[C@H]1CN(C)Cc1ccccc1
AC50 [1]: 3.08 µM (active)

C[C@H](CO)N1C[C@H](C)[C@@H](CN(C)Cc2ccccc2)Oc2c(NC(=O)CCCCCC(=O)Nc3ccccc3N)cccc2C1=O
AC50 [1]: 3.24 µM (active)

N=C1/C(=C\c2ccc(SCc3ccccc3)o2)C(=O)N=C2SC(CC(=O)N3CCOCC3)=NN12
EC50 [3]: 63.4 µM (active) | EC50 [4]: 33.3 µM (active)

Cc1noc(C)c1NC(=O)Nc1cccc2c1O[C@@H](CN(C)S(C)(=O)=O)[C@@H](C)CN([C@@H](C)CO)C2=O
AC50 [1]: 1.01 µM (active)

O=C(CCSc1ccc(Cl)cc1)N1CCCCCC1
EC50 (H4): 21.6 µM (active) | EC50 [6]: > 120 µM (not active)

O=C(NCC1CCCO1)C(=O)N/N=C/c1cc(Cl)ccc1O (centres undefined)
IC50 (Nonstructural protein 1): 7.81 µM (active)

Cc1[nH]c2ccccc2c1CN1CCC(Cc2ccccc2)CC1
EC50 [7]: 10.9 µM (active) | AC50 (INS1): 3.46 µM (active) | CC50 (Vero): > 25 µM (active) | EC50 [8]: 0.212 µM (active)

Cc1cc([N+](=O)[O-])nn1CC(=O)N/N=C/c1ccc(O)cc1O
AC50 [9]: 12.1 µM (active) | IC50 (Nonstructural protein 1): 14.2 µM (active)

CN(C)C=O.Oc1cccc2c(NC(S)=Nc3ccc(OC(F)F)cc3)cccc12
EC50 (H4): > 120 µM (not active) | EC50 [6]: 12.8 µM (active) | IC50 [10]: 116 µM (active)

COc1ccc(NC(=O)Nc2cccc3c2O[C@H](CN(C)Cc2ccc(C(=O)Nc4ccccc4N)cc2)[C@@H](C)CN([C@@H](C)CO)C3=O)cc1
AC50 [1]: 1.92 µM (active)

N#Cc1c(-c2ccc(Cl)cc2)c2c([nH]c1=O)-c1ccccc1OC2
EC50 [3]: > 300 µM (not active) | EC50 [4]: 53 µM (active)

C[C@@H]1CN([C@@H](C)CO)C(=O)c2cccc(NC(=O)Nc3ccc(C(F)(F)F)cc3)c2O[C@@H]1CN(C)Cc1ccc(Oc2ccccc2)cc1
AC50 [1]: 6.09 µM (active)

C[C@@H]1CCCCO[C@@H](CN(C)Cc2ccc(Cl)c(Cl)c2)[C@@H](C)CN([C@H](C)CO)C(=O)c2cc(NC(=O)Nc3ccc(F)cc3)ccc2O1
AC50 [1]: 2.38 µM (active)

CCCN1C(=O)S/C(=C/c2ccc(N3CCOCC3)o2)C1=O
CC50 (Vero): > 25 µM (active)

Cn1cc(/C=C2/SC(=O)N(c3ccccc3)C2=O)c2ccccc21
EC50 (H4): 94.6 µM (active) | EC50 [6]: 50.8 µM (active)

C[C@H](CO)N1C[C@H](C)[C@@H](CN(C)Cc2ccc(C(F)(F)F)cc2)Oc2c(NS(=O)(=O)c3ccccc3)cccc2C1=O
AC50 [1]: 8.8 µM (active)

C[C@H](CO)N1C[C@H](C)[C@@H](CN(C)C(=O)Nc2cccc3ccccc23)Oc2c(NC(=O)Nc3ccc4c(c3)OCO4)cccc2C1=O
AC50 [1]: 6.85 µM (active)

CC(C)C(=O)OCC(=O)Nc1ccc(N=Nc2ccccc2)cc1
IC50 (Nonstructural protein 1): > 100 µM (active)

C/C(=C\c1ccco1)C1Nc2cccc3cccc(c23)N1
IC50 [2]: 8.61 µM (active)
